Experimental data published in PubChem BioAssay (NCI).
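Values below derive from 48-hour exposures of cells grown in 96-well plates, with endpoints linearly interpolated between the two concentrations bracketing the appropriate inhibition level. The concentration for 50% growth inhibition is given as GI50. TGI denotes the concentration required for complete inhibition of growth.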

tested on: NCI-H522 lung; test: NCI anticancer screen, dose series, 48 h

First: N#CC(C(=O)CCCC(=O)Nc1ccc(Cl)cc1Cl)c1ccc(Cl)cc1 (stereo not given)
Second: Cn1nc(-c2ccccc2)c(C(=O)/C=C/c2ccc(Cl)cc2)c(N2CCCC2)c1=O
The TGI of the first is higher: > 100 µM for the first, 6.45 µM for the second.

First: O=CCCCC(Sc1ccccc1)Sc1ccccc1
Second: Cc1cc2nc(-c3c(F)cccc3Cl)n(Cc3c(F)cccc3Cl)c2cc1C
The TGI of the first is higher: > 100 µM for the first, 48.9 µM for the second.

Compared with `COc1ccc(C)cc1C1CCC(=O)O1` (stereo not given), `[CH3][Sn]1([CH3])[O]CC(COc2cc(Cl)c(Cl)cc2Cl)[O]1` (stereo not given) is lower in TGI: > 100 µM for the first, 36.3 µM for the second.

Compared with `O=C1CCC(=O)c2sccc2N1`, `O=C1C=Cc2ncccc2C1=O` is lower in TGI: > 100 µM for the first, 29.7 µM for the second.

First: CCCCCCCCCCCCCCCCCC(=O)NCC(COP(=O)(O)O)OCC (stereo not given)
Second: CCCCCCCCCCSC(=N)N
The TGI of the first is higher: > 100 µM for the first, 3.47 µM for the second.

`C/C(CC(=O)Nc1cccc([N+](=O)[O-])c1)=N\NC(=O)CC#N` and `CCc1cc(Cc2ccc(C)c(NC(=O)C(=O)C3C(=O)NC(=O)NC3=O)c2CC)cc(C)c1NC(=O)C(=O)C1C(=O)NC(=O)NC1=O` cannot be ordered by TGI: > 100 µM for the first, > 100 µM for the second.

`CC(=O)OC(=O)O/C=C\CCl` and `CC(=O)c1c2c(cc3c1CC1(C3)Cc3cc4c(c(C(=O)O)c3C1)CCC4)CCC2` (stereo not given) are within 1.5-fold of each other in TGI: 33.1 µM for the first, 42.3 µM for the second.

`C#CCOCn1cnc2ncnc(N)c21` was tested, and the TGI was > 100 µM.

Compared with `CCCCCCCCCCSC(=N)N`, `[CH3][Sn]1([CH3])[O]CC(COc2cc(Cl)c(Cl)cc2Cl)[O]1` (stereo not given) is 11-fold higher in GI50: 1.56 µM for the first, 16.8 µM for the second.

In the case of `Cc1cc2nc(-c3c(F)cccc3Cl)n(Cc3c(F)cccc3Cl)c2cc1C`, the GI50 is reported as 20.3 µM.

tested on: MALME-3M melanoma; test: NCI anticancer screen, dose series, 48 h

Going from `O=S1(=O)c2ccccc2N=C(c2ccccc2Cl)CC1c1ccc(F)cc1` (stereo not given) to `Cc1ccc2nc(NC(=O)C(=O)CC(=O)c3cccc4ccccc34)sc2c1`, the TGI rises from 36.8 µM to 70.2 µM (1.9-fold).

Going from `CCN(CC)Cc1cc(Nc2c3ccccc3nc3cc(Cl)ccc23)ccc1O` to `Cc1ccc(/C=N/NS(=O)(=O)c2ccccc2)c(C)c1`, the TGI rises from 3.58 µM to > 100 µM.

`CC1=CC(=O)NP(=O)(C23CC4CC(CC(C4)C2)C3)N1` (stereo not given) and `O=C1CCC(=O)c2sccc2N1` cannot be ordered by TGI: > 100 µM for the first, > 100 µM for the second.

`O=c1[nH]cc(C(F)(C(F)(F)F)C(F)(F)F)c(=O)[nH]1` and `O=C1C=Cc2ncccc2C1=O` cannot be ordered by TGI: > 100 µM for the first, > 57.2 µM for the second.

`COc1ccc2c(c1)c1c3n2CCNN=C3CCC1` and `COc1ccc(C)cc1C1CCC(=O)O1` (stereo not given) cannot be ordered by TGI: > 100 µM for the first, > 100 µM for the second.

Compared with `CC(=O)[C-](C(C)=O)c1ccccc1.CC(=O)[C-](C(C)=O)c1ccccc1.CC(=O)[C-](C(C)=O)c1ccccc1.[Cl-].[Zr+4]`, `COc1ccc(NC(=O)C2C(=O)N(c3ccc(OC)cc3)C(=O)/C2=N\NC(N)=O)cc1` (stereo not given) is lower in TGI: > 100 µM for the first, 68.5 µM for the second.

`CC(C)N1C(C)[C@@H](c2ccccc2)O[P@]1(=O)CC1=CCCCC1` (stereo not given in full) and `O=C(O)CCc1nc(-c2ccccc2-n2cccc2)no1` cannot be ordered by TGI: > 100 µM for the first, > 100 µM for the second.

`COC(=O)C(=O)C(C(=O)C(=O)Nc1cc(Cl)c(Cl)cc1Cl)c1nc2ccc([N+](=O)[O-])cc2[nH]c1=O` (stereo not given) and `N#CC(C(=O)CCCC(=O)Nc1ccc(Cl)cc1Cl)c1ccc(Cl)cc1` (stereo not given) cannot be ordered by TGI: > 100 µM for the first, > 100 µM for the second.

Compared with `C/C(=N\NS(=O)(=O)c1ccc([N+](=O)[O-])cc1)c1ccc[n+]([O-])n1`, `C/C(CC(=O)Nc1cccc([N+](=O)[O-])c1)=N\NC(=O)CC#N` is higher in TGI: 9.45 µM for the first, > 100 µM for the second.

`S=c1c2ccccc2c(=S)n2n1CC=CC2` and `CCCCNC1=C(C(=O)OCC)/C(=N/NC(=O)c2ccccc2O)CO1` cannot be ordered by TGI: > 100 µM for the first, > 100 µM for the second.

First: CC(C)(C)Sc1nnc(SC(C)(C)C)c2c(=O)[nH]nc(SC(C)(C)C)c12
Second: Cc1noc(/N=C2\C=C(Nc3onc(C)c3C)C(=O)c3ccccc32)c1C
The TGI of the first is lower: 26.2 µM for the first, > 100 µM for the second.

Compared with `CCCCCCCCCCCCCCCCCC(=O)NCC(COP(=O)(O)O)OCC` (stereo not given), `CCCCCCCCCCSC(=N)N` is lower in TGI: > 100 µM for the first, 6.59 µM for the second.

`[CH3][Sn]1([CH3])[O]CC(COc2cc(Cl)c(Cl)cc2Cl)[O]1` (stereo not given) and `CC(=O)c1c2c(cc3c1CC1(C3)Cc3cc4c(c(C(=O)O)c3C1)CCC4)CCC2` (stereo not given) cannot be ordered by TGI: > 100 µM for the first, > 100 µM for the second.

`CCc1cc(Cc2ccc(C)c(NC(=O)C(=O)C3C(=O)NC(=O)NC3=O)c2CC)cc(C)c1NC(=O)C(=O)C1C(=O)NC(=O)NC1=O` and `CC(=O)OC(=O)O/C=C\CCl` cannot be ordered by TGI: > 100 µM for the first, > 100 µM for the second.

`C#CCOCn1cnc2ncnc(N)c21` was tested, and the TGI was > 100 µM.

Compared with `CCN(CC)Cc1cc(Nc2c3ccccc3nc3cc(Cl)ccc23)ccc1O`, `CC(=O)[C-](C(C)=O)c1ccccc1.CC(=O)[C-](C(C)=O)c1ccccc1.CC(=O)[C-](C(C)=O)c1ccccc1.[Cl-].[Zr+4]` is higher in GI50: 1.94 µM for the first, > 100 µM for the second.

Compared with `CCCCCCCCCCSC(=N)N`, `[CH3][Sn]1([CH3])[O]CC(COc2cc(Cl)c(Cl)cc2Cl)[O]1` (stereo not given) is higher in GI50: 2.32 µM for the first, > 100 µM for the second.

tested on: IGROV1 ovarian; test: NCI anticancer screen, dose series, 48 h

`O=S1(=O)c2ccccc2N=C(c2ccccc2Cl)CC1c1ccc(F)cc1` (stereo not given) and `Cn1nc(-c2ccccc2)c(C(=O)/C=C/c2ccc(Cl)cc2)c(N2CCCC2)c1=O` are within 1.5-fold of each other in TGI: 37.4 µM for the first, 27.9 µM for the second.

Compared with `CCN(CC)Cc1cc(Nc2c3ccccc3nc3cc(Cl)ccc23)ccc1O`, `Cc1ccc2nc(NC(=O)C(=O)CC(=O)c3cccc4ccccc34)sc2c1` is higher in TGI: 3.55 µM for the first, > 100 µM for the second.

`CC1=CC(=O)NP(=O)(C23CC4CC(CC(C4)C2)C3)N1` (stereo not given) and `O=C1CCC(=O)c2sccc2N1` cannot be ordered by TGI: > 100 µM for the first, > 100 µM for the second.

`O=c1[nH]cc(C(F)(C(F)(F)F)C(F)(F)F)c(=O)[nH]1` and `O=C1C=Cc2ncccc2C1=O` cannot be ordered by TGI: > 100 µM for the first, > 58.3 µM for the second.

`COc1ccc2c(c1)c1c3n2CCNN=C3CCC1` and `COc1ccc(C)cc1C1CCC(=O)O1` (stereo not given) cannot be ordered by TGI: > 100 µM for the first, > 100 µM for the second.

Going from `CC(=O)[C-](C(C)=O)c1ccccc1.CC(=O)[C-](C(C)=O)c1ccccc1.CC(=O)[C-](C(C)=O)c1ccccc1.[Cl-].[Zr+4]` to `O=CCCCC(Sc1ccccc1)Sc1ccccc1`, the TGI falls from > 100 µM to 50.5 µM.

`CC(C)N1C(C)[C@@H](c2ccccc2)O[P@]1(=O)CC1=CCCCC1` (stereo not given in full) and `O=C(O)CCc1nc(-c2ccccc2-n2cccc2)no1` cannot be ordered by TGI: > 100 µM for the first, > 100 µM for the second.

`COC(=O)C(=O)C(C(=O)C(=O)Nc1cc(Cl)c(Cl)cc1Cl)c1nc2ccc([N+](=O)[O-])cc2[nH]c1=O` (stereo not given) and `N#CC(C(=O)CCCC(=O)Nc1ccc(Cl)cc1Cl)c1ccc(Cl)cc1` (stereo not given) cannot be ordered by TGI: > 100 µM for the first, > 100 µM for the second.

Compared with `COc1ccc(NC(=O)C2C(=O)N(c3ccc(OC)cc3)C(=O)/C2=N\NC(N)=O)cc1` (stereo not given), `CCCCNC1=C(C(=O)OCC)/C(=N/NC(=O)c2ccccc2O)CO1` is higher in TGI: 45 µM for the first, > 100 µM for the second.

Compared with `C/C(=N\NS(=O)(=O)c1ccc([N+](=O)[O-])cc1)c1ccc[n+]([O-])n1`, `C/C(CC(=O)Nc1cccc([N+](=O)[O-])c1)=N\NC(=O)CC#N` is higher in TGI: 20.9 µM for the first, > 100 µM for the second.

`S=c1c2ccccc2c(=S)n2n1CC=CC2` and `Cc1cc2nc(-c3c(F)cccc3Cl)n(Cc3c(F)cccc3Cl)c2cc1C` cannot be ordered by TGI: > 100 µM for the first, > 100 µM for the second.

Going from `CC(C)(C)Sc1nnc(SC(C)(C)C)c2c(=O)[nH]nc(SC(C)(C)C)c12` to `CCCCCCCCCCSC(=N)N`, the TGI falls from 22 µM to 13.3 µM (1.7-fold).

`CCCCCCCCCCCCCCCCCC(=O)NCC(COP(=O)(O)O)OCC` (stereo not given) was tested, and the TGI was > 100 µM.

Compared with `CCN(CC)Cc1cc(Nc2c3ccccc3nc3cc(Cl)ccc23)ccc1O`, `Cc1cc2nc(-c3c(F)cccc3Cl)n(Cc3c(F)cccc3Cl)c2cc1C` is 20-fold higher in GI50: 1.65 µM for the first, 33 µM for the second.

Compared with `CC(=O)[C-](C(C)=O)c1ccccc1.CC(=O)[C-](C(C)=O)c1ccccc1.CC(=O)[C-](C(C)=O)c1ccccc1.[Cl-].[Zr+4]`, `CCCCCCCCCCSC(=N)N` is lower in GI50: > 100 µM for the first, 2.85 µM for the second.
